Assay results from patent US12320798B2, “Diagnostic methods, therapeutic agents and uses thereof” (Metabolon, Inc., priority 2015, dated 2025).

Experiment: 12 week lifestyle plus metformin intervention in IFG subjects
Assay type: in vivo, human
Details: 12 weeks lifestyle + metformin 2 g/day, 33 IFG subjects
From the text: 33 subjects with IFG underwent a 12 week intervention including both lifestyle (diet and exercise) changes and drug (metformin, dose: 2 g/day) therapy. At baseline, this study was 49% female with a mean age of 54 and mean BMI of 30.9.

SMILES: CN(C)C(=N)N=C(N)N [metformin]
- % Decrease from baseline, 2hPG: 13.0%
- % Decrease from baseline, FPG: 9.4%
- % Decrease from baseline, Weight: 6.8%
